{
  "source": "PubChem BioAssay AID248",
  "about": "(DTP/NCI, 2004)",
  "system": "L1210 leukemia ip in BDF1 mice, survival T/C",
  "test": "NCI In Vivo Anticancer Drug Screen. Data for tumor model L1210 Leukemia (intraperitoneal) in B6D2F1 (BDF1) mice",
  "conditions": "endpoint: mean survival time, higher = longer survival",
  "how_it_was_run": "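Mice bearing the transplanted tumor received compound or vehicle. Survival of the treated group was divided by that of the vehicle-treated control group to give the ratio.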",
  "key": {"[1]": {"conditions": "dose: 100.0 mg/kg/injection, schedule: Q04DX003 (ip), vehicle: Klucel (hydroxypropylcellulose) (HPC)"}, "[2]": {"conditions": "dose: 200.0 mg/kg/injection, schedule: Q04DX003 (ip), vehicle: Klucel (hydroxypropylcellulose) (HPC)"}, "[3]": {"conditions": "dose: 400.0 mg/kg/injection, schedule: Q04DX003 (ip), vehicle: Klucel (hydroxypropylcellulose) (HPC)"}, "[4]": {"conditions": "dose: 100.0 mg/kg/injection, schedule: Q01DX001 (ip), vehicle: saline"}, "[5]": {"conditions": "dose: 200.0 mg/kg/injection, schedule: Q01DX001 (ip), vehicle: saline"}, "[6]": {"conditions": "dose: 400.0 mg/kg/injection, schedule: Q01DX001 (ip), vehicle: saline"}, "[7]": {"conditions": "dose: 25.0 mg/kg/injection, schedule: Q01DX009 (ip), vehicle: Klucel (hydroxypropylcellulose) (HPC)"}, "[8]": {"conditions": "dose: 50.0 mg/kg/injection, schedule: Q01DX009 (ip), vehicle: Klucel (hydroxypropylcellulose) (HPC)"}, "[9]": {"conditions": "dose: 100.0 mg/kg/injection, schedule: Q01DX009 (ip), vehicle: Klucel (hydroxypropylcellulose) (HPC)"}},
  "note": "Several values for one entry are separate records, joined by “and”; a condition that tells them apart may be missing. Identical values can stand only once. Toxic doses and inconclusive results are not listed. Peptide text beside a SMILES is read from it. * marks the point of attachment. Cbz = O=C(OCc1ccccc1)*; Bn = c1ccc(C*)cc1",
  "data": [
    {"smiles": "CCCCN(CCCC)CC(O)c1cc(OC)c2cc(Cl)cc(Cl)c2n1", "note": "(stereo not given)", "values": [
      {"measurement": "T/C", "setting": "dose: 100.0 mg/kg/injection, schedule: Q04DX003 (ip), vehicle: saline with Tween-80", "value": "98 % of control"},
      {"measurement": "T/C", "setting": "dose: 200.0 mg/kg/injection, schedule: Q04DX003 (ip), vehicle: saline with Tween-80", "value": "91 % of control"},
      {"measurement": "T/C", "setting": "dose: 400.0 mg/kg/injection, schedule: Q04DX003 (ip), vehicle: saline with Tween-80", "value": "94 % of control"}
    ]},
    {"smiles": "O=NN(CCCl)C(=O)NC1CCS(=O)(=O)CC1", "values": [
      {"measurement": "T/C", "setting": "dose: 6.0 mg/kg/injection, schedule: Q01DX001 (ip), vehicle: carboxymethylcellulose (CMC)", "value": "228 % of control"},
      {"measurement": "T/C", "setting": "dose: 7.5 mg/kg/injection, schedule: Q01DX001 (ip), vehicle: carboxymethylcellulose (CMC)", "value": "313 % of control"},
      {"measurement": "T/C", "setting": "dose: 8.0 mg/kg/injection, schedule: Q01DX001 (ip), vehicle: carboxymethylcellulose (CMC)", "value": "235 % of control"},
      {"measurement": "T/C", "setting": "dose: 11.4 mg/kg/injection, schedule: Q01DX001 (ip), vehicle: carboxymethylcellulose (CMC)", "value": "337 % of control"},
      {"measurement": "T/C", "setting": "dose: 12.0 mg/kg/injection, schedule: Q01DX001 (ip), vehicle: carboxymethylcellulose (CMC)", "value": "211 % of control and 319 % of control"},
      {"measurement": "T/C", "setting": "dose: 17.0 mg/kg/injection, schedule: Q01DX001 (ip), vehicle: carboxymethylcellulose (CMC)", "value": "337 % of control"},
      {"measurement": "T/C", "setting": "dose: 18.0 mg/kg/injection, schedule: Q01DX001 (ip), vehicle: carboxymethylcellulose (CMC)", "value": "319 % of control"},
      {"measurement": "T/C", "setting": "dose: 37.0 mg/kg/injection, schedule: Q01DX001 (ip), vehicle: carboxymethylcellulose (CMC)", "value": "93 % of control and 105 % of control"}
    ]},
    {"smiles": "CC(=O)c1cc(O)c2ccccc2c1O", "values": [
      {"measurement": "T/C", "setting": "dose: 100.0 mg/kg/injection, schedule: Q01DX001 (ip), vehicle: water", "value": "98 % of control"},
      {"measurement": "T/C", "setting": "dose: 200.0 mg/kg/injection, schedule: Q01DX001 (ip), vehicle: water", "value": "89 % of control"}
    ]},
    {"smiles": "c1ccc2c(CNC3CCCCC3)c[nH]c2c1", "values": [
      {"measurement": "T/C", "setting": "dose: 50.0 mg/kg/injection, schedule: Q01DX001 (ip), vehicle: carboxymethylcellulose (CMC)", "value": "90 % of control"},
      {"measurement": "T/C", "setting": "[1]", "value": "90 % of control"},
      {"measurement": "T/C", "setting": "[2]", "value": "97 % of control"},
      {"measurement": "T/C", "setting": "[3]", "value": "98 % of control"}
    ]},
    {"smiles": "CCCCCCCCc1cc2c(c3c1CCCC3)CCC1CCCCC21", "note": "(stereo not given)", "values": [
      {"measurement": "T/C", "setting": "[4]", "value": "104 % of control"},
      {"measurement": "T/C", "setting": "[5]", "value": "98 % of control"},
      {"measurement": "T/C", "setting": "[6]", "value": "101 % of control"}
    ]},
    {"smiles": "O=C(ON(Cc1ccccc1)Cc1ccccc1)c1ccccc1", "values": [
      {"measurement": "T/C", "setting": "dose: 100.0 mg/kg/injection, schedule: Q01DX001 (ip), vehicle: other", "value": "103 % of control"},
      {"measurement": "T/C", "setting": "dose: 200.0 mg/kg/injection, schedule: Q01DX001 (ip), vehicle: other", "value": "100 % of control"},
      {"measurement": "T/C", "setting": "dose: 400.0 mg/kg/injection, schedule: Q01DX001 (ip), vehicle: other", "value": "103 % of control"}
    ]},
    {"smiles": "CCCCCCOc1ccc(C(=O)C(=O)c2ccccc2)cc1", "values": [
      {"measurement": "T/C", "setting": "dose: 100.0 mg/kg/injection, schedule: Q01DX001 (ip), vehicle: carboxymethylcellulose (CMC)", "value": "109 % of control"},
      {"measurement": "T/C", "setting": "dose: 200.0 mg/kg/injection, schedule: Q01DX001 (ip), vehicle: carboxymethylcellulose (CMC)", "value": "88 % of control"},
      {"measurement": "T/C", "setting": "dose: 400.0 mg/kg/injection, schedule: Q01DX001 (ip), vehicle: carboxymethylcellulose (CMC)", "value": "97 % of control"}
    ]},
    {"smiles": "O=C1/C(=C\\c2ccccn2)CCCc2ccccc21", "values": [
      {"measurement": "T/C", "setting": "[7]", "value": "102 % of control"},
      {"measurement": "T/C", "setting": "[8]", "value": "98 % of control"},
      {"measurement": "T/C", "setting": "dose: 50.0 mg/kg/injection, schedule: Q04DX003 (ip), vehicle: Klucel (hydroxypropylcellulose) (HPC)", "value": "98 % of control"},
      {"measurement": "T/C", "setting": "[9]", "value": "101 % of control"},
      {"measurement": "T/C", "setting": "[1]", "value": "98 % of control"},
      {"measurement": "T/C", "setting": "dose: 100.0 mg/kg/injection, schedule: Q04DX003 (ip), vehicle: carboxymethylcellulose (CMC)", "value": "96 % of control"},
      {"measurement": "T/C", "setting": "dose: 200.0 mg/kg/injection, schedule: Q01DX009 (ip), vehicle: Klucel (hydroxypropylcellulose) (HPC)", "value": "100 % of control"},
      {"measurement": "T/C", "setting": "[2]", "value": "102 % of control"},
      {"measurement": "T/C", "setting": "dose: 200.0 mg/kg/injection, schedule: Q04DX003 (ip), vehicle: carboxymethylcellulose (CMC)", "value": "100 % of control"},
      {"measurement": "T/C", "setting": "dose: 400.0 mg/kg/injection, schedule: Q01DX009 (ip), vehicle: Klucel (hydroxypropylcellulose) (HPC)", "value": "102 % of control"},
      {"measurement": "T/C", "setting": "[3]", "value": "93 % of control"},
      {"measurement": "T/C", "setting": "dose: 400.0 mg/kg/injection, schedule: Q04DX003 (ip), vehicle: carboxymethylcellulose (CMC)", "value": "156 % of control"},
      {"measurement": "T/C", "setting": "dose: 800.0 mg/kg/injection, schedule: Q04DX003 (ip), vehicle: Klucel (hydroxypropylcellulose) (HPC)", "value": "104 % of control"}
    ]},
    {"smiles": "Cc1ccc(S(=O)(=O)O/C=C2\\CCOC2=O)cc1", "values": [
      {"measurement": "T/C", "setting": "dose: 100.0 mg/kg/injection, schedule: Q04DX002 (ip), vehicle: Klucel (hydroxypropylcellulose) (HPC)", "value": "105 % of control"},
      {"measurement": "T/C", "setting": "dose: 200.0 mg/kg/injection, schedule: Q04DX002 (ip), vehicle: Klucel (hydroxypropylcellulose) (HPC)", "value": "112 % of control"}
    ]},
    {"smiles": "CCCCOC(=O)Nc1ccc(OCC)cc1", "values": [
      {"measurement": "T/C", "setting": "[4]", "value": "107 % of control"},
      {"measurement": "T/C", "setting": "[5]", "value": "95 % of control"},
      {"measurement": "T/C", "setting": "[6]", "value": "93 % of control"}
    ]},
    {"smiles": "COC(=O)C(Cc1ccc(O)cc1)NC(=O)C(CSCc1ccccc1)NC(=O)OCc1ccccc1", "note": "(stereo not given) (Cbz-Cys(Bn)-Tyr-OMe; configuration not given here)", "values": [
      {"measurement": "T/C", "setting": "dose: 100.0 mg/kg/injection, schedule: Q04DX003 (ip), vehicle: DMSO", "value": "94 % of control"},
      {"measurement": "T/C", "setting": "dose: 200.0 mg/kg/injection, schedule: Q04DX003 (ip), vehicle: DMSO", "value": "98 % of control"},
      {"measurement": "T/C", "setting": "dose: 400.0 mg/kg/injection, schedule: Q04DX003 (ip), vehicle: DMSO", "value": "91 % of control"}
    ]},
    {"smiles": "O=C(NC(=S)Nc1cccc(Cl)c1)c1ccccc1F", "values": [
      {"measurement": "T/C", "setting": "[7]", "value": "87 % of control"},
      {"measurement": "T/C", "setting": "[8]", "value": "86 % of control"},
      {"measurement": "T/C", "setting": "[9]", "value": "87 % of control"}
    ]}
  ]
}
